# Data: patent US7037896B1, “Peptide (VIRIP) which inhibits a circulating virus in humans and the use thereof” (priority 1999, dated 2006)
# Columns and labels:
# R5-tropic forms = assay: Replication of HIV isolates in human PBMC (RT activity), R5-tropic forms; format: cell-based; conditions: compared with X4-tropic and dual-tropic variants
# Protocol: (§1) FIG. 5: VIRIP inhibits the replication of various HIV isolates with different cell- and co-receptor-tropisms in human PBMC. Prestimulated PBMC were treated with the various HIV-1 isolates (10 ng of p27 antigen) or a chimeric onco-lentivirus (Mu-HIV) in the presence of the VIRIP concentrations shown. Viral replication was determined by measuring the reverse transcriptase activity in the cell culture supernatant.
# (§2) The inhibitory effects on R5-tropic forms were lesser. A chimeric onco-lentivirus (Mu-HIV) carrying the MLV envelope protein was not inhibited (FIG. 5, bottom).
# blood cells = assay: Cytotoxic effect on the blood cells
# HIV-1 = conditions: three days after infection
# Protocol: FIG. 2: Influence of synthetic VIRIP on the infection of CEMx174-SEAP indicator cells (left) and replication in human PBMCs (right). The cells were infected and cultured in the presence of the stated amounts of VIRIP. To determine the viral entry, the activity of the secreted alkaline phosphatase was determined in the culture supernatant of the CEMx174-SEAP cells three days after the infection.
# [1] = tested on: R5-tropic HIV-1 NL4-3 V3 variants; assay: Infection of P4R5 indicator cells with NL4-3 V3 recombinants, R5-tropic variants; format: cell-based; conditions: 50 ng of p24, luciferase test
# Excerpt: (§3) FIG. 3: The V3 loop of the X4-tropic NL43 clone was exchanged for the corresponding sequences of the HIV-1 isolates shown. Thus, the recombinant viruses are distinguished exclusively in the V3 loop. In the right panel, the observed inhibitors effect (%), the overall charge of the V3 region and the co-receptor-tropism are shown. At the bottom, the consensus sequence (SEQ ID NO: 6) is shown.
# (§4) The V3 loop of the X4-tropic NL4-3 clone was replaced by the corresponding region of a number of primary HIV-1 isolates. […] To determine the inhibitory influence of VIRIP on these variants, P4R5 indicator cells were examined. P4R5 cells express both CCR5 and CXCR4 and contain the luciferase gene under the control of HIV-1 LTR. This cell line was infected with the various recombinant viruses (50 ng of p24) in the presence and absence of VIRIP, and the infection was quantified using the luciferase test.
# [2] = tested on: X4-tropic HIV-1 P59S isolate; assay: Dose-dependent inhibition of infection of P4R5 indicator cells, P59S isolate; format: cell-based; conditions: 2 days after infection
# Protocol: (§5) P4R5 indicator cells were infected in the presence of the shown concentrations of VIRIP, and the β-galactosidase activity was measured in the cell extract 2 days after the infection.
# (§6) In order to quantify the inhibitory effect of the substance according to the invention more precisely, P4R5 indicator cells were infected with the X4-tropic HIV-1 P59S isolate and the R5-tropic 92TH isolate in the presence of different doses of VIRIP.
# [3] = tested on: X4-tropic HIV-1 NL4-3 V3 variants; assay: Infection of P4R5 indicator cells with NL4-3 V3 recombinants, X4-tropic variants; format: cell-based
# Excerpt: as §3, §4
# dual-tropic HIV variants = assay: Replication of HIV isolates in human PBMC (RT activity), dual-tropic variants; format: cell-based
# Protocol: as §1, §2
# HIV-1 NL43 = assay: Replication of HIV-1 in human PBMCs (reverse transcriptase test in culture supernatant); format: cell-based
# Protocol: FIG. 1: Purification of VIRIP. The purification steps are described in the text. (b) Inhibition of the replication of HIV-1 NL43 in human blood lymphocytes by fraction 1–20. The cells were stimulated with PHA for 2 days, infected with virus stocks containing 10 ng of p24, and the reverse transcriptase activity determined in the culture supernatant 9 days after the infection. The result of the infection experiments is shown.
# The isolation of VIRIP was effected on the basis of its inhibitory action on the replication of HIV-1 in an assay which measures the replication of HIV-1 in human peripheral blood lymphocytes (PBMCs). Thus, aliquots of each of the individual chromatographic fractions described under Example 1 were freeze-dried and then subjected to the biological assay in amounts of from 10 ml up to 1 l of hemofiltrate equivalent. The respective fractions which gave a positive signal were subjected to further purification.
# Human peripheral blood lymphocytes (PBMCs) were obtained from whole blood using density gradient centrifugation in Ficoll. The cells were prestimulated for two days (RPMI medium, 20% FKS, 100 U/ml IL-2, 5 μg/ml phytohemagglutinin [PHA]). Then, the PBMCs were sedimented by centrifugation at 1200 rpm for 5 min, taken up in PHA-free RPMI medium (20% FKS, 100 U/ml IL-2) and seeded in 96-well flat-bottomed plates in a volume of 80 μl in concentrations of about 150,000 cells per well.
# On the following day, aliquots of the individual chromatographic steps described under Example 1 were supplied in amounts of from 10 ml up to 1 l of hemofiltrate equivalent. Thus, the freeze-dried chromatographic fractions were taken up in water and pipetted to the PBMCs in various concentrations in a total volume of 10 μl. After 2 hours of incubation at 37° C., the cells were infected by the addition of 10 μl of HIV-1 virus stock containing from 0.1 to 10 ng of p24 antigen. Subsequently, 50 μl of the culture medium was replaced every 2 days by fresh medium which additionally contained the corresponding peptide fractions. The production of HIV particles at different times (after 9, 12 and 18 days) from the infection of the cells was quantified in a reverse transcriptase (RT) test. The RT test measures the activity of reverse transcriptase in a cell-free culture supernatant, which is thus a measure of the production of viral particles and viral replication in the PBMC cultures. Alternatively, the viral production was determined in p24 antigen ELISA.
# X4-tropic HIV variants = assay: Replication of HIV isolates in human PBMC (RT activity), X4-tropic variants; format: cell-based
# Protocol: as §1, §2
# R5-tropic 92TH isolate = assay: Dose-dependent inhibition of infection of P4R5 indicator cells, 92TH isolate; format: cell-based, HIV-1
# Protocol: as §5, §6
# [4] = tested on: X4/R5-tropic HIV-1 NL4-3 V3 variants; assay: Infection of P4R5 indicator cells with NL4-3 V3 recombinants, X4/R5-tropic variants; format: cell-based; conditions: 50 ng of p24, luciferase test
# Excerpt: as §3, §4
# [5] = tested on: chimeric onco-lentivirus (Mu-HIV) carrying the MLV envelope protein; assay: Replication of chimeric onco-lentivirus in human PBMC (RT activity); format: cell-based
# Protocol: as §1, §2
sequence,measurement,setting,value
"LEAIPMSIPPEVKFNKPFVF [VIRIP, 20-amino-acid fragment (amino acids 353 to 372) of human alpha-1-antitrypsin, isolated from hemofiltrate and also chemically synthesized]",inhibitory effects on R5-tropic forms,R5-tropic forms,lesser
same,cytotoxic effect on the blood cells,blood cells,does not exert any cytotoxic effect
same,inhibition of the HIV-1 infection of CEMx174-SEAP indicator cells,HIV-1,dose-dependent inhibition
same,inhibition of R5-tropic variants,[1],inhibited
same,concentration inhibiting the HIV-1 P59S isolate by 50%,[2],40 µg/mL
same,concentration inhibiting the HIV-1 P59S isolate by 90%,[2],180 µg/mL
same,efficiency of inhibition of X4-tropic variants having a strongly positively charged V3 loop as compared with R5-tropic or dual-tropic isolates,[3],inhibited more efficiently
same,inhibition of X4-tropic variants,"[3]; 50 ng of p24, luciferase test",inhibited
same,suppression of replication of dual-tropic HIV variants,dual-tropic HIV variants; 100 μg/ml,at least partially
same,suppression of replication of dual-tropic HIV variants,dual-tropic HIV variants; 1000 μg/ml,completely
same,inhibition of the replication of HIV-1 in PBMCs,HIV-1 NL43; listed as VIRIP from hemofiltrate,effectively block
same,inhibition of the replication of HIV-1 in PBMCs,HIV-1 NL43; listed as VIRIP purified from hemofiltrate,dose-dependent inhibition
same,inhibition of the replication of HIV-1 in PBMCs,HIV-1 NL43; listed as chemically synthesized VIRIP,dose-dependent inhibition
same,inhibition of the replication of HIV-1 in PBMCs,HIV-1 NL43; listed as synthetically prepared VIRIP,dose-dependent suppression
same,inhibition of the replication of HIV-1 in PBMCs,HIV-1 NL43; listed as synthetically prepared peptide,effectively block
same,suppression of replication of X4-tropic HIV variants,X4-tropic HIV variants; 100 μg/ml,at least partially
same,suppression of replication of X4-tropic HIV variants,X4-tropic HIV variants; 1000 μg/ml,completely
same,concentrations required for inhibiting the 92TH isolate relative to P59S,R5-tropic 92TH isolate,about twofold higher concentrations
same,inhibition of X4/R5-tropic variants,[4],inhibited
same,inhibition of chimeric onco-lentivirus (Mu-HIV),[5],not inhibited
